Test results as given in PubChem BioAssay (NCI).
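Protocol summary: plate cells (96-well), add compound at 5 concentrations, incubate 48 h, interpolate endpoints linearly. At the GI50, growth is halved. TGI is the concentration that stops growth completely.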

What was measured:
Assay in all cases: inhibition of tumour cell growth, NCI panel, 48 h
786-0 renal = test system: 786-0 renal
HL-60(TB) leukemia = test system: HL-60(TB) leukemia
M14 melanoma = test system: M14 melanoma
MCF7 breast = test system: MCF7 breast
NCI/ADR-RES ovarian = test system: NCI/ADR-RES ovarian
SF-295 CNS = test system: SF-295 CNS
U251 CNS = test system: U251 CNS
UACC-257 melanoma = test system: UACC-257 melanoma
UACC-62 melanoma = test system: UACC-62 melanoma
HT29 colon = test system: HT29 colon

| SMILES | GI50 (786-0 renal) | TGI (786-0 renal) | GI50 (HL-60(TB) leukemia) | TGI (HL-60(TB) leukemia) | GI50 (M14 melanoma) | TGI (M14 melanoma) | GI50 (MCF7 breast) | TGI (MCF7 breast) | GI50 (NCI/ADR-RES ovarian) | TGI (NCI/ADR-RES ovarian) | GI50 (SF-295 CNS) | TGI (SF-295 CNS) | GI50 (U251 CNS) | TGI (U251 CNS) | GI50 (UACC-257 melanoma) | TGI (UACC-257 melanoma) | GI50 (UACC-62 melanoma) | TGI (UACC-62 melanoma) | GI50 (HT29 colon) | TGI (HT29 colon) |
| --- | --- | --- | --- | --- | --- | --- | --- | --- | --- | --- | --- | --- | --- | --- | --- | --- | --- | --- | --- | --- |
| CCSc1nc(N)c(C#N)c(-c2ccc(OC)c(OC)c2)c1C#N | 15.7 µM | 49.3 µM | 21.8 µM | > 50 µM | 18.7 µM | 45.7 µM | 10.6 µM | > 50 µM | 21.9 µM | > 50 µM | 19.1 µM | > 50 µM | 17.6 µM | > 50 µM | 9.13 µM | > 50 µM | 8.65 µM | 45.2 µM | – | – |
| NCCNc1nc2ccc(F)cc2c2c(=O)c3cc(F)ccc3sc12 | 1.59 µM | 2.96 µM | 2.28 µM | 5.21 µM | 2.77 µM | 8.65 µM | – | – | 1.7 µM | 3.33 µM | 1.88 µM | 3.59 µM | 1.76 µM | 3.24 µM | 2.69 µM | 7.8 µM | 1.66 µM | 3.06 µM | 1.61 µM | 3.06 µM |
| COC(=O)CCC(=O)Nc1cc(C)ccc1C | – | > 100 µM | – | > 100 µM | – | > 100 µM | – | – | – | – | – | > 100 µM | – | > 100 µM | – | > 100 µM | – | > 100 µM | – | > 100 µM |
| COc1ncc(-c2ccc3ncnc(Nc4cccc(Cl)c4)c3c2)cc1NS(C)(=O)=O | 2.72 µM | 24.9 µM | 0.848 µM | 16.4 µM | 2.81 µM | 19.2 µM | 0.404 µM | 11.1 µM | 2.38 µM | 29.1 µM | 1.71 µM | 10.8 µM | 4.11 µM | 31.6 µM | – | – | 1.79 µM | 12.2 µM | 1.07 µM | 13.1 µM |
| C=CC(=O)OCCCS(=O)(=O)[O-].C=CC(=O)OCCCS(=O)(=O)[O-].NC1CCCCC1N.[Pt+4] | > 25 µM | > 25 µM | > 25 µM | > 25 µM | > 25 µM | > 25 µM | – | – | – | – | > 25 µM | > 25 µM | > 25 µM | > 25 µM | > 25 µM | > 25 µM | > 25 µM | > 25 µM | > 25 µM | > 25 µM |
| O=C(O)c1ccccc1C(=O)Nc1cc2c(cc1Br)-c1ccccc1C2=O | – | > 100 µM | – | > 100 µM | – | > 100 µM | – | > 100 µM | – | > 100 µM | – | – | – | > 100 µM | – | > 100 µM | – | > 100 µM | – | > 100 µM |
| Clc1ccc2c(NCCNc3nc(N4CCCCC4)nc4ccccc34)ccnc2c1 | 1.31 µM | 2.78 µM | – | – | 1.82 µM | 3.61 µM | 0.748 µM | 12.6 µM | 3.5 µM | > 100 µM | 1.71 µM | 3.23 µM | 2.08 µM | 5.15 µM | 1.94 µM | 3.77 µM | 1.95 µM | 3.7 µM | 1.58 µM | 4.1 µM |
| Nc1ncc(-c2ccc3ncnc(N4CCc5cc(F)c(Cl)cc54)c3c2)cc1C(F)(F)F | 1.04 µM | 4.79 µM | 0.981 µM | > 100 µM | 2.74 µM | > 100 µM | – | – | 2.05 µM | > 100 µM | 2.03 µM | > 100 µM | 3.5 µM | > 100 µM | 2.08 µM | > 100 µM | – | – | 1.97 µM | > 100 µM |
| COc1ccccc1N1CCN(CC(O)Cn2c(=O)c3c(OC)nc(C)cc3c(=O)n2-c2ccccc2)CC1 (configuration not stated) | 24.3 µM | 76.9 µM | > 100 µM | > 100 µM | > 100 µM | > 100 µM | > 100 µM | > 100 µM | 87.9 µM | > 100 µM | 25.8 µM | > 100 µM | 31.6 µM | > 100 µM | – | – | 64.9 µM | > 100 µM | > 100 µM | > 100 µM |
| CCCCCCCCCCCc1cc(=O)c2c(O)cccc2o1 | – | > 100 µM | – | > 100 µM | – | > 100 µM | – | – | – | – | – | > 100 µM | – | > 100 µM | – | > 100 µM | – | > 100 µM | – | > 100 µM |
| N#CC1=C(N)Oc2c(ccc3cccnc23)C1c1ccccc1 (configuration not stated) | – | > 100 µM | – | 2.07 µM | – | > 41.5 µM | 0.406 µM | 58.1 µM | 0.464 µM | 12.4 µM | – | > 21.9 µM | – | 36.2 µM | – | > 79.4 µM | – | 24.6 µM | – | – |
| COc1ccccc1NC(=O)C1=C(C)NC(C)=C(C(=O)Nc2ccccc2OC)C1c1ccc(C2C(C(=O)Nc3ccccc3OC)=C(C)NC(C)=C2C(=O)Nc2ccccc2OC)cc1 | – | 4.22 µM | – | 5.96 µM | – | 3.34 µM | – | – | – | – | – | 6.28 µM | – | 7.01 µM | – | 6.17 µM | – | 3.26 µM | – | 4.56 µM |
| O=C1Nc2cc(-c3ccc(O)cc3)ccc2/C1=C/c1ccc[nH]1 | 0.396 µM | 4.04 µM | 0.228 µM | – | 0.0974 µM | > 100 µM | – | – | 0.251 µM | > 100 µM | 0.266 µM | > 40.5 µM | 0.526 µM | > 100 µM | 0.743 µM | > 100 µM | 0.049 µM | 10.9 µM | 0.979 µM | > 33.8 µM |
| O=CCC(O)C(O)C(O)CO (configuration not stated) | > 100 µM | > 100 µM | – | – | > 100 µM | > 100 µM | > 100 µM | > 100 µM | > 100 µM | > 100 µM | > 100 µM | > 100 µM | > 100 µM | > 100 µM | 55.6 µM | > 100 µM | > 100 µM | > 100 µM | > 100 µM | > 100 µM |
| COc1cc2ccnc(-c3n[nH]c4cc(OC)c(OC)cc34)c2cc1OC | – | > 100 µM | – | > 100 µM | – | > 100 µM | – | – | – | – | – | > 100 µM | – | > 100 µM | – | > 100 µM | – | > 100 µM | – | > 100 µM |
| CCOC(=O)CC1C(CNC(=O)NC)OC(n2cnc3c(NC(=O)Nc4ccccc4)ncnc32)C1O[Si](C)(C)C(C)(C)C (configuration not stated) | 2 µM | 5.21 µM | – | – | 2.51 µM | 11.6 µM | 3.42 µM | 45.1 µM | > 100 µM | > 100 µM | 5.73 µM | > 100 µM | 4.69 µM | 20.9 µM | 5.68 µM | > 100 µM | > 100 µM | > 100 µM | 4.2 µM | > 100 µM |
